Measured values taken from ChEMBL document CHEMBL5370597, “Fungal Duel between Penicillium brasilianum and Aspergillus nomius Results in Dual Induction of Miktospiromide A and Kitrinomycin A” (J Nat Prod, 2023).
Converted amounts (≈) assume the structure as drawn. The source made the active and inactive calls. The rule behind the calls is not given here.

Experiments:
Giardia intestinalis = test: Anti-protozoal activity against Giardia duodenalis 713 assessed as inhibition of protozoal growth measured after 72 hrs under anaerobic conditions; format: functional
Aspergillus nomiae [1] = test: Antifungal activity against Aspergillus nomius MST-FP2004 assessed as change in morphology at 20 ug by disc diffusion assay; format: functional, organism-based; conditions: dose 20.0 µg
Tritrichomonas foetus = test: Antiprotozoal activity against Tritrichomonas foetus KV-1 strain assessed as inhibition of protozoal growth measured after 72 hrs under anaerobic conditions; format: functional
Staphylococcus aureus = test: Antibacterial activity against Staphylococcus aureus ATCC 25923 assessed as bacterial growth inhibition incubated for 48 hrs by resazurin staining based microplate reader assay; format: functional
[2] = Cytotoxicity against mouse NS-1 cells incubated for 72 hrs by resazurin staining based microplate reader assay; format: functional
MCF7 = test: Cytotoxicity against human MCF7 cells incubated for 72 hrs by resazurin staining based microplate reader assay; format: functional
Bacillus subtilis = test: Antibacterial activity against Bacillus subtilis ATCC 6633 assessed as bacterial growth inhibition incubated for 48 hrs by resazurin staining based microplate reader assay; format: functional
Candida albicans = test: Antifungal activity against Candida albicans ATCC 10231 assessed as fungal growth inhibition incubated for 48 hrs by bromocresol green staining based microplate reader assay; format: functional
DU-145 = test: Cytotoxicity against human DU-145 cells incubated for 72 hrs by resazurin staining based microplate reader assay; format: functional
Aspergillus nomiae [3] = test: Antifungal activity against Aspergillus nomius MST-FP2004 assessed as reduction in growth diameter at 20 ug by disc diffusion assay relative to control; format: functional; parameters: scale not given: the % may be the effect or the level left; conditions: dose 20 µg
Escherichia coli = test: Antibacterial activity against Escherichia coli ATCC 25922 assessed as bacterial growth inhibition incubated for 48 hrs by resazurin staining based microplate reader assay; format: functional
Aspergillus nomiae [4] = test: Antifungal activity against Aspergillus nomius MST-FP2004 assessed as fungal growth rate at 20 ug by disc diffusion assay; format: functional, organism-based; conditions: dose 20.0 µg
NFF = test: Cytotoxicity against human NFF cells incubated for 72 hrs by resazurin staining based microplate reader assay; format: toxicity, cell-based
Saccharomyces cerevisiae = test: Antifungal activity against Saccharomyces cerevisiae ATCC 9763 assessed as fungal growth inhibition incubated for 48 hrs by bromocresol green staining based microplate reader assay; format: functional
Penicillium brasilianum [5] = test: Antifungal activity against Penicillium brasilianum MST-FP1927 assessed as change in morphology at 20 ug by disc diffusion assay; format: functional, organism-based; conditions: dose 20.0 µg
Penicillium brasilianum [6] = test: Antifungal activity against Penicillium brasilianum MST-FP1927 assessed as fungal growth rate at 20 ug by disc diffusion assay; format: functional, organism-based; conditions: dose 20.0 µg

Compound	LD99 (Giardia intestinalis)	Activity (Aspergillus nomiae [1])	LD99 (Tritrichomonas foetus)	MIC (Staphylococcus aureus)	LD99 [2]	LD99 (MCF7)	MIC (Bacillus subtilis)	MIC (Candida albicans)	LD99 (DU-145)	Activity (Aspergillus nomiae [3])	MIC (Escherichia coli)	Activity (Aspergillus nomiae [4])	LD99 (NFF)	MIC (Saccharomyces cerevisiae)	Activity (Penicillium brasilianum [5])	Activity (Penicillium brasilianum [6])
COC(=O)c1oc(=O)c2c(O)c3c(O)c(C(C)=O)oc3cc2c1O	37 µM	inactive	4.8 µM	> 100 µg/mL	7.8 µM	>100 µM	42 µg/mL (≈ 126 µM)	> 100 µg/mL	>100 µM	~7%	> 100 µg/mL	inactive	> 100 µM	> 100 µg/mL	–	–
CO[C@@]12[C@H](COC(N)=O)C3=C(C(=O)C(C)=C(N)C3=O)N1C[C@@H]1N[C@@H]12 [MITOMYCIN]	–	–	–	–	0.93 µM	–	–	–	–	–	–	–	–	–	–	–
COC(=O)c1oc(=O)c2c(O)c(C(=O)O)c(O)cc2c1O	>100 µM	inactive	>100 µM	> 100 µg/mL	>100 µM	>100 µM	> 100 µg/mL	> 100 µg/mL	>100 µM	–	> 100 µg/mL	inactive	> 100 µM	> 100 µg/mL	–	–
CN[C@@H]1C[C@H]2O[C@@](C)([C@@H]1OC)n1c3ccccc3c3c4c(c5c6ccccc6n2c5c31)C(=O)NC4 [STAUROSPORINE]	–	–	1.2 µM	–	–	54 µM	–	–	3.4 µM	–	–	–	0.09 µM	–	–	–
Cc1ncc([N+](=O)[O-])n1CCO [METRONIDAZOLE]	9.1 µM	–	–	–	–	–	–	–	–	–	–	–	–	–	–	–
CCCCCCC/C=C/C1=CC(=O)[C@]2(O1)C(=O)N[C@@](C)(O)[C@H]2O	39 µM	–	>100 µM	50 µg/mL (≈ 155 µM)	77 µM	>100 µM	25 µg/mL (≈ 77.3 µM)	> 100 µg/mL	39 µM	–	> 100 µg/mL	–	> 100 µM	> 100 µg/mL	inactive	inactive
GENTAMICIN	–	–	–	0.38 µg/mL	–	–	0.38 µg/mL	–	–	–	0.81 µg/mL	–	–	–	–	–
C[C@@H]1[C@H](O)[C@@H](C)/C=C/C=C/C=C/C=C/C=C/C=C/C=C/[C@H](O[C@@H]2O[C@H](C)[C@@H](O)[C@H](N)[C@@H]2O)C[C@@H]2O[C@](O)(C[C@@H](O)C[C@@H](O)[C@H](O)CC[C@@H](O)C[C@@H](O)CC(=O)O[C@H]1C)C[C@H](O)[C@H]2C(=O)O [AMPHOTERICIN B]	–	–	–	–	–	–	–	0.09 µg/mL (≈ 0.0974 µM)	–	–	–	–	–	0.28 µg/mL (≈ 0.303 µM)	–	–
